Legend:
Test in all cases: relative viability (nuclei count vs DMSO), 5 days (fraction); higher = more cells survive
HARA = test system: HARA
Method in brief: (§1)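 Five library-drug doses in √10 steps were combined with a fixed anchor-drug dose, or a single drug was given alone, by pin tool to lung cancer cell lines in 1536-well plates the day after seeding. Nuclei were stained and counted after 5 days. Relative viability is the nuclei count in treated wells over that in vehicle wells, taken as the median of duplicate plates.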

LOU-NH91 = test system: LOU-NH91
Method in brief: as §1

NCI-H23 = test system: NCI-H23
Method in brief: as §1

LXF-289 = test system: LXF-289
Method in brief: as §1

PC-3 [JPC-3] = test system: PC-3 [JPC-3]
Method in brief: as §1

NCI-H647 = test system: NCI-H647
Method in brief: as §1

LCLC-103H = test system: LCLC-103H
Method in brief: as §1

COR-L23 = test system: COR-L23
Method in brief: as §1

NCI-H1793 = test system: NCI-H1793
Method in brief: as §1

NCI-H1651 = test system: NCI-H1651
Method in brief: as §1

NCI-H838 = test system: NCI-H838
Method in brief: as §1

NCI-H522 = test system: NCI-H522
Method in brief: as §1

RERF-LC-KJ = test system: RERF-LC-KJ
Method in brief: as §1

LCLC-97TM1 = test system: LCLC-97TM1
Method in brief: as §1

UMC-11 = test system: UMC-11
Method in brief: as §1

LK-2 = test system: LK-2
Method in brief: as §1

NCI-H1650 = test system: NCI-H1650
Method in brief: as §1

NCI-H2347 = test system: NCI-H2347
Method in brief: as §1

A-427 = test system: A-427
Method in brief: as §1

201T = test system: 201T
Method in brief: as §1

NCI-H520 = test system: NCI-H520
Method in brief: as §1

HCC-78 = test system: HCC-78
Method in brief: as §1

NCI-H2405 = test system: NCI-H2405
Method in brief: as §1

Compound: Cc1csc(=NC2CCCCC2)n1/N=C/c1ccc(O)c(O)c1O [MIM1] + Nc1ncn([C@H]2C[C@H](O)[C@@H](CO)O2)c(=O)n1 [Decitabine] (partner 2 µM)
- relative viability (HARA; first compound 0.2 µM): 0.529
- relative viability (HARA; first compound 0.6325 µM): 0.722
- relative viability (HARA; first compound 2 µM): 0.697
- relative viability (HARA; first compound 6.325 µM): 0.475
- relative viability (HARA; first compound 20 µM): 0.204
- relative viability (LOU-NH91; first compound 0.2 µM): 0.787
- relative viability (LOU-NH91; first compound 0.6325 µM): 0.788
- relative viability (LOU-NH91; first compound 2 µM): 0.644
- relative viability (LOU-NH91; first compound 6.325 µM): 0.742
- relative viability (LOU-NH91; first compound 20 µM): 0.458
- relative viability (NCI-H23; first compound 0.2 µM): 0.336
- relative viability (NCI-H23; first compound 0.6325 µM): 0.322
- relative viability (NCI-H23; first compound 2 µM): 0.288
- relative viability (NCI-H23; first compound 6.325 µM): 0.281
- relative viability (NCI-H23; first compound 20 µM): 0.169
- relative viability (LXF-289; first compound 0.2 µM): 0.399
- relative viability (LXF-289; first compound 0.6325 µM): 0.368
- relative viability (LXF-289; first compound 2 µM): 0.394
- relative viability (LXF-289; first compound 6.325 µM): 0.328
- relative viability (LXF-289; first compound 20 µM): 0.253
- relative viability (PC-3 [JPC-3]; first compound 0.2 µM): 0.816
- relative viability (PC-3 [JPC-3]; first compound 0.6325 µM): 0.894
- relative viability (PC-3 [JPC-3]; first compound 2 µM): 0.752
- relative viability (PC-3 [JPC-3]; first compound 6.325 µM): 0.774
- relative viability (PC-3 [JPC-3]; first compound 20 µM): 0.609
- relative viability (NCI-H647; first compound 0.2 µM): 0.414
- relative viability (NCI-H647; first compound 0.6325 µM): 0.364
- relative viability (NCI-H647; first compound 2 µM): 0.397
- relative viability (NCI-H647; first compound 6.325 µM): 0.33
- relative viability (NCI-H647; first compound 20 µM): 0.126
- relative viability (LCLC-103H; first compound 0.2 µM): 0.773
- relative viability (LCLC-103H; first compound 0.6325 µM): 0.778
- relative viability (LCLC-103H; first compound 2 µM): 0.808
- relative viability (LCLC-103H; first compound 6.325 µM): 0.666
- relative viability (LCLC-103H; first compound 20 µM): 0.367
- relative viability (COR-L23; first compound 0.2 µM): 0.405
- relative viability (COR-L23; first compound 0.6325 µM): 0.475
- relative viability (COR-L23; first compound 2 µM): 0.418
- relative viability (COR-L23; first compound 6.325 µM): 0.346
- relative viability (COR-L23; first compound 20 µM): 0.225
- relative viability (NCI-H1793; first compound 0.2 µM): 0.507
- relative viability (NCI-H1793; first compound 2 µM): 0.518
- relative viability (NCI-H1793; first compound 6.325 µM): 0.479
- relative viability (NCI-H1793; first compound 20 µM): 0.495
- relative viability (NCI-H1651; first compound 0.2 µM): 0.608
- relative viability (NCI-H1651; first compound 0.6325 µM): 0.524
- relative viability (NCI-H1651; first compound 2 µM): 0.56
- relative viability (NCI-H1651; first compound 6.325 µM): 0.509
- relative viability (NCI-H1651; first compound 20 µM): 0.306
- relative viability (NCI-H838; first compound 0.2 µM): 0.468
- relative viability (NCI-H838; first compound 0.6325 µM): 0.462
- relative viability (NCI-H838; first compound 2 µM): 0.513
- relative viability (NCI-H838; first compound 6.325 µM): 0.394
- relative viability (NCI-H838; first compound 20 µM): 0.221
- relative viability (NCI-H522; first compound 0.2 µM): 0.625
- relative viability (NCI-H522; first compound 0.6325 µM): 0.632
- relative viability (NCI-H522; first compound 2 µM): 0.711
- relative viability (NCI-H522; first compound 6.325 µM): 0.691
- relative viability (NCI-H522; first compound 20 µM): 0.63
- relative viability (RERF-LC-KJ; first compound 0.2 µM): 0.624
- relative viability (RERF-LC-KJ; first compound 0.6325 µM): 0.652
- relative viability (RERF-LC-KJ; first compound 2 µM): 0.377
- relative viability (RERF-LC-KJ; first compound 6.325 µM): 0.301
- relative viability (RERF-LC-KJ; first compound 20 µM): 0.22
- relative viability (LCLC-97TM1; first compound 0.2 µM): 0.245
- relative viability (LCLC-97TM1; first compound 0.6325 µM): 0.238
- relative viability (LCLC-97TM1; first compound 2 µM): 0.234
- relative viability (LCLC-97TM1; first compound 6.325 µM): 0.214
- relative viability (LCLC-97TM1; first compound 20 µM): 0.0699
- relative viability (UMC-11; first compound 0.2 µM): 0.565
- relative viability (UMC-11; first compound 0.6325 µM): 0.585
- relative viability (UMC-11; first compound 2 µM): 0.647
- relative viability (UMC-11; first compound 6.325 µM): 0.607
- relative viability (UMC-11; first compound 20 µM): 0.42
- relative viability (LK-2; first compound 0.2 µM): 0.343
- relative viability (LK-2; first compound 0.6325 µM): 0.288
- relative viability (LK-2; first compound 2 µM): 0.246
- relative viability (LK-2; first compound 6.325 µM): 0.346
- relative viability (LK-2; first compound 20 µM): 0.163
- relative viability (NCI-H1650; first compound 0.2 µM): 0.428
- relative viability (NCI-H1650; first compound 0.6325 µM): 0.448
- relative viability (NCI-H1650; first compound 2 µM): 0.348
- relative viability (NCI-H1650; first compound 6.325 µM): 0.199
- relative viability (NCI-H1650; first compound 20 µM): 0.135
- relative viability (NCI-H2347; first compound 0.2 µM): 0.592
- relative viability (NCI-H2347; first compound 0.6325 µM): 0.592
- relative viability (NCI-H2347; first compound 2 µM): 0.64
- relative viability (NCI-H2347; first compound 6.325 µM): 0.574
- relative viability (NCI-H2347; first compound 20 µM): 0.527
- relative viability (A-427; first compound 0.2 µM): 0.583
- relative viability (A-427; first compound 0.6325 µM): 0.578
- relative viability (A-427; first compound 2 µM): 0.572
- relative viability (A-427; first compound 6.325 µM): 0.541
- relative viability (A-427; first compound 20 µM): 0.308
- relative viability (201T; first compound 0.2 µM): 0.849
- relative viability (201T; first compound 0.6325 µM): 0.887
- relative viability (201T; first compound 2 µM): 0.812
- relative viability (201T; first compound 6.325 µM): 0.831
- relative viability (201T; first compound 20 µM): 0.533
- relative viability (NCI-H520; first compound 0.2 µM): 0.574
- relative viability (NCI-H520; first compound 0.6325 µM): 0.485
- relative viability (NCI-H520; first compound 2 µM): 0.526
- relative viability (NCI-H520; first compound 6.325 µM): 0.43
- relative viability (NCI-H520; first compound 20 µM): 0.284
- relative viability (HCC-78; first compound 0.2 µM): 0.784
- relative viability (HCC-78; first compound 2 µM): 0.728
- relative viability (HCC-78; first compound 6.325 µM): 0.502
- relative viability (HCC-78; first compound 20 µM): 0.426
- relative viability (NCI-H2405; first compound 0.2 µM): 0.744
- relative viability (NCI-H2405; first compound 0.6325 µM): 0.738
- relative viability (NCI-H2405; first compound 2 µM): 0.771
- relative viability (NCI-H2405; first compound 6.325 µM): 0.561
- relative viability (NCI-H2405; first compound 20 µM): 0.421

— the supplement of paper PMC10307832
